Measured values reported in US10266823B2, “Small molecules that enhance the activity of oligonucleotides” (The University of North Carolina at Chapel Hill, priority 2014, dated 2019).

Tests used:
HeLa cells = assay: Live cell confocal microscopy: subcellular distribution of TAMRA oligonucleotide and organelle markers; format: cell-based, human
Method: FIG. 3A: Effects on Cell Morphology and Subcellular Distribution of Oligonucleotide: Quantitation of Colocalization. HeLa cells were transfected with baculovirus expression vectors for GFP-Rab7a (late endosome marker) or GFP-LAMP-1 (lysosome marker). The cells were then incubated with 300 nM SSO 623-TAMRA for 16 h. Cells were then treated with 10 uM 7938 for 1 h or maintained as controls. Live cells were imaged using a confocal microscope with environmental stage. Co-localization of GFP and TAMRA oligonucleotide was quantitated using the Image J Coloc2 plug-in and expressed as the Manders correlation coefficient. Individual cells were analyzed and the data summated. Means and standard errors shown. N=9-20. ** represents p<0.002 compared to Rab 7 control.
FIG. 3B. Effects on Cell Morphology and Subcellular Distribution of Oligonucleotide: Nuclear Accumulation. TAMRA fluorescence intensity in the nucleus was quantitated using Image J. Means and standard errors shown. N=55-70. *** represents p<0.001 compared to Control.
Quantitative live cell confocal microscopy (Dunn, K. W., et al., Am J Physiol Cell Physiol, 300, C723-742 (2011)) was performed to examine the subcellular distribution of fluorescent oligonucleotide or of certain markers for endomembrane compartments. Cells (HeLa) were transfected with baculovirus expression vectors for GFP chimeras of marker proteins for several endomembrane compartments. The day following transfection, cells were incubated for 4 h with 300 nM TAMRA conjugated SSO 623 in OptiMEM after which the cells were washed and incubated in DMEM medium with 1% FBS. In some cases hit compounds were added during or after the incubation. Cells were imaged on an Olympus FV1000 MPE laser scanning confocal microscope with environmental chamber to maintain 37 C, 40% humidity and 5% C02. We used 488 nm (GFP) and 559 nm (TAMRA) as laser lines, and images were collected with a 60× oil immersion lens. Quantitation of co-localization of oligonucleotide and marker proteins utilized the Coloc2 plug-in in Image J. In some cases GFP markers for organelles were examined in cells previously fixed in 4% formaldehyde in PBS.

EGFP654 mice = assay: Acute toxicity, blood chemistry parameters in EGFP654 mice; format: in vivo, mouse; conditions: 7.5 mg/kg i.v.; data not shown
Excerpt: (§1) All animal procedures were in accordance with guidelines of the UNC Laboratory Animal Medicine Department and with federal guidelines. The EGFP654 transgenic mouse has been described previously (Sazani, P., et al., Nature biotechnology, 20, 1228-1233 (2002), Roberts, J., et al., Mol Ther, 14, 471-475 (2006)). A reporter gene comprised of the EGFP coding sequence is interrupted by an aberrantly spliced intron. Delivery of an appropriate SSO to the nucleus of tissue cells will correct splicing leading the expression of normal EGFP mRNA and protein. EGFP654 mice were administered 25 mg/kg SS0623 or mis-matched oligonucleotide in PBS by intra-peritoneal injection on two consecutive days. One day later the mice received 7.5 mg/kg UNC10217938A intravenously in a diluent of 5% PEG400, or diluent only. After 24 h the mice were euthanized and cardiac blood and tissues samples collected. Tissues for fluorescence microscopy to visualize EGFP were fixed in cold 1.5% paraformaldehyde in PBS and then processed for cryosectioning (Sazani, P., et al., Nature biotechnology, 20, 1228-1233 (2002)). Tissues for RNA analysis were collected from mice euthanized at 4 h and ere quick frozen on dry ice. All procedures involving live animals were conducted by the UNC Animal Studies Core facility. Blood samples were analyzed by the UNC Animal Clinical Chemistry Core facility.

EGFP654 transgenic mouse = assay: In vivo splice correction in EGFP654 transgenic mouse
Excerpt: FIG. 4. In vivo effects: Quantitation of RT-PCR. Gel bands were quantitated using a Typhoon imaging system. Percent of switching is the ratio of lower band to upper band ×100. *** difference from PBS control significant at the 0.001 level.
as §1
In the EGFP654 transgenic line a reporter gene comprised of the EGFP coding sequence is interrupted by an aberrantly spliced intron. Effective delivery of an appropriate SSO to the nucleus of tissue cells will correct splicing leading to expression of normal EGFP mRNA and protein in that tissue. We visualized EGFP expression by fluorescence microscopy of tissue cryosections and evaluated correction of EGFP pre-mRNA splicing by RT-PCR. […]

A375Luc705 cells = assay: Luciferase induction by RGD-SSO-albumin conjugate; format: cell-based, human; conditions: 2 h, 100 nM RGD-SSO-albumin conjugate
Method: FIG. 2. Effects on Receptor-Targeted oligonucleotides. A375Luc705 cells were treated with 100 nM RGD-SSO-albumin conjugate for 16 h and subsequently treated with Retro-1 (100 uM) or 7938 (5, 10 uM) for 2 h. After removal of the compound the cells were incubated for a further 24 h and then assayed for luciferase and cell protein. (A) Control; (B) RGD-SSO conjugate only; (C) RGD-SSO conjugate plus Retrol; (D) RGD-SSO conjugate plus 5 uM 7938; (E) RGD-SSO conjugate plus 10 uM 7938. Means+/−SE. N=3.
Our laboratory has pursued the use of ligand-oligonucleotide conjugates to attain receptor-selective targeted delivery (Alam, M. R., et al., Bioconjugate chemistry, 22, 1673-1681 (2011), Ming, X., et al., Biomaterials, 34, 7939-7949 (2013), Nakagawa, O., et al., Bioconjugate chemistry, 25, 165-170 (2014)). Thus we were interested in whether our compounds would affect oligonucleotides that enter cells by receptor-mediated endocytosis. We used a previously described (Ming, X., et al., Biomaterials, 34, 7939-7949 (2013)) multivalent conjugate comprised of several RGD peptide-conjugated morpholino SSOs further conjugated via bioreversible links to serum albumin as a carrier. […] We examined luciferase induction in αvβ3-expressing A375 melanoma cells that contain the Luc705 expression cassette. […] Thus 7938 can substantially enhance effects of receptor targeted oligonucleotide conjugates. […]

C57BL/6 mice = assay: 7 day toxicity study; format: in vivo; conditions: doses that overlap those of FIG. 4, data not shown
[1] = tested on: P-glycoprotein multidrug transporter in multi-drug resistant 3T3 cells; assay: Antisense knockdown of P-glycoprotein (anti-MDR1 ASO), flow cytometry; format: cell-based, mouse
Method: Luciferase induction dose-response curves in a 24 well plate format with normalization on cell protein were performed as previously described (Alam, M. R. et al., Nucleic Acids Res, 36, 2764-2776 (2008), Ming, X., et al., Nucleic Acids Res, 38, 6567-6576 (2010)). Splicing modulation of the EGFP654 reporter and of endogenous Bcl-X were monitored by RT-PCR using appropriate primers. Evaluation of hit compound effects on antisense actions involved ‘knockdown’ of MDR1 pre-mRNA and its protein product in multi-drug resistant mouse 3T3 cells. Cell surface expression of P-glycoprotein was monitored using an Alexa-488 conjugated monoclonal antibody and flow cytometry as previously described (Ming, X. et al., Nucleic Acids Res, 41, 3673-3687 (2013), Fisher, M., et al., Nucleic Acids Res, 35, 1064-1074 (2007)). Evaluation of effects on siRNA utilized a HeLa cell line stably transfected with an EGFP expression cassette. Cholesterol-conjugated siRNAs were used to attain sufficient uptake. Cells were incubated with the siEGFP or control siRNA, rinsed, and then briefly exposed to hit compound. After further incubation expression of EGFP was monitored by flow cytometry. In cases where treatment with Lipofectamine 2000 was used as a positive control, the manufacturer's protocol was followed. […]

HeLaLuc705 cells [2] = assay: SSO623-mediated luciferase induction (splice correction), 24 well format; format: cell-based, human; conditions: for enhancement of luciferase induction as compared to SSO alone: 2 h, 100 nM SSO623
Method: FIG. 1B. SSO Dose-response of hit compounds. Selected hits were examined for their ability to enhance splice correction by SSO623 in the HeLa Luc 705 cell system. Cells were incubated in 24 well plates with 100 nM 623 or its mismatched control (MM) for 16 h in DMEM+10% FBS, rinsed, and then treated with various concentrations of the hit compounds, or with 100 uM Retro-1, for 2 h. The cells were then rinsed and incubation continued for an additional 4 h in DMEM+10% FBS. Cells were rinsed twice in PBS and luciferase activity (RLU) and cell protein determined. Means+/−SE. N=3. Mismatched controls were at baseline level on this scale and are not shown.
(§2) Luciferase induction dose-response curves in a 24 well plate format with normalization on cell protein were performed as previously described (Alam, M. R. et al., Nucleic Acids Res, 36, 2764-2776 (2008), Ming, X., et al., Nucleic Acids Res, 38, 6567-6576 (2010)). Splicing modulation of the EGFP654 reporter and of endogenous Bcl-X were monitored by RT-PCR using appropriate primers. Evaluation of hit compound effects on antisense actions involved ‘knockdown’ of MDR1 pre-mRNA and its protein product in multi-drug resistant mouse 3T3 cells. Cell surface expression of P-glycoprotein was monitored using an Alexa-488 conjugated monoclonal antibody and flow cytometry as previously described (Ming, X. et al., Nucleic Acids Res, 41, 3673-3687 (2013), Fisher, M., et al., Nucleic Acids Res, 35, 1064-1074 (2007)). Evaluation of effects on siRNA utilized a HeLa cell line stably transfected with an EGFP expression cassette. Cholesterol-conjugated siRNAs were used to attain sufficient uptake. Cells were incubated with the siEGFP or control siRNA, rinsed, and then briefly exposed to hit compound. After further incubation expression of EGFP was monitored by flow cytometry. In cases where treatment with Lipofectamine 2000 was used as a positive control, the manufacturer's protocol was followed.

HeLaLuc705 cells [3] = assay: High throughput screen, SSO623 luciferase induction, 384 well; format: cell-based, human; conditions: library compounds at 25 uM, 5 h; 100 nM SSO623
Method: Our high throughput screen (HTS) utilized HeLaLuc705 cells. Delivery of an appropriate SSO to the nucleus corrects splicing and induces luciferase expression thus providing an easily interpreted positive readout (Iam, M. R. et al., Nucleic Acids Res, 36, 2764-2776 (2008), Ming, X., et al., Nucleic Acids Res, 38, 6567-6576 (2010)). Cells were trypsinized, rinsed, and suspended in Opti-MEM at 300,000 cells/ml; SSO623 was added to a final concentration of 100 nM. No lipid or polymer transfection agents were used in these assays. Opti-MEM (15 ul) followed by cell suspension (20 ul) was added to wells of 384 well plates. Cells were allowed to attach and incubate with the SSO for 16 h. During this 16 h period a set of positive control wells received chloroquine to a final concentration of 300 uM while a set of negative control wells received diluent. After the initial incubation the remaining wells received library compounds to a final concentration of 25 uM. Incubation with library compounds was at 37 C for 5 h at which time the cells were harvested and analyzed for luciferase induction. Library compounds that produced an induction of 50% that of the positive controls were considered positive in this assay and were further analyzed. Dose-response curves were developed comparing SSO623 with a mis-matched oligonucleotide. […]

[4] = tested on: HeLa cell line stably transfected with an EGFP expression cassette; assay: Cholesterol-conjugated siEGFP reduction of EGFP, flow cytometry; format: cell-based, human; conditions: cholesterol-conjugated siRNA
Method: as §2

[5] = 10 uM, 1 h, Manders correlation coefficient

SMILES | co-localization of TAMRA-oligonucleotide with late endosome marker Rab7 (HeLa cells; [5]) | co-localization of TAMRA-oligonucleotide with lysosomal marker LAMP-1 (HeLa cells; [5]) | accumulation of Tamra-oligonucleotide in the nucleus (HeLa cells; TAMRA fluorescence intensity in the nucleus) | release of fluorescent dextran from endosomes (HeLa cells; dextran of molecular mass similar to an oligonucleotide, data not shown) | acute toxicity (blood chemistry parameters) (EGFP654 mice) | EGFP fluorescence in liver, kidney and heart (EGFP654 transgenic mouse; SS0623 25 mg/kg i.p. on two days, then 7.5 mg/kg compound i.v., 24 h) | correction of EGFP pre-mRNA splicing by RT-PCR in liver, kidney and heart (EGFP654 transgenic mouse; SS0623 followed by compound, RNA at 4 h) | EGFP induction in skeletal muscle (EGFP654 transgenic mouse; SS0623 followed by compound, data not shown) | ability of the conjugate to induce luciferase (A375Luc705 cells; 5 or 10 uM compound, compared with 100 uM Retro-1) | toxicity (C57BL/6 mice) | amount of ASO at which strong effects were observed ([1]; ASO varied, constant concentration of compound) | enhancement of ASO action (P-glycoprotein knockdown) ([1]; anti-MDR1 ASO, data not shown) | enhancement of luciferase induction as compared to SSO alone (HeLaLuc705 cells [2]; 10 uM compound) | enhancement of luciferase induction as compared to SSO alone (HeLaLuc705 cells [2]; 20 uM compound) | amount of SSO at which strong induction effects were observed (HeLaLuc705 cells [2]; SSO varied, constant concentration of compound) | activity in high throughput screen (HeLaLuc705 cells [3]) | ability of siEGFP to reduce levels of EGFP [4] | ability of the conjugate to induce luciferase (A375Luc705 cells; 100 uM compound) | enhancement of luciferase induction as compared to SSO alone (HeLaLuc705 cells [2]; 100 uM compound)
CCOC(=O)Nc1cc(NCCN(C)C)c2nc(-c3ccccc3)c(-c3ccccc3)nc2n1 [compound 7938] | major reduction | little effect | increase | partially released | did not result in acute toxicity | distinct increases | correctly spliced EGFP message was found | not strongly affected | far larger impact | no significant evidence of toxicity | 5 nM | strongly enhanced | 60 fold | 220 fold | 3 nM | active | enhanced |  | 
CCC(=O)N1CC(=O)Nc2ccc(Br)cc2C1c1ccccc1 (stereo not shown) [Retro-1, reference compound] |  |  |  |  |  |  |  |  |  |  |  |  |  |  |  |  |  | increased | 11 fold
